Test results: ChEMBL document CHEMBL4602694, “Suppression of Drug-Resistant Non-Small-Cell Lung Cancer with Inhibitors Targeting Minichromosomal Maintenance Protein” (J Med Chem, 2020)

Columns and labels:
[1] = target: T1, DNA replication licensing factor MCM4 (Homo sapiens) (UniProt P33991); assay: Induction of ubiquitination of MCM4 in human NCI-H1975 cells incubated for 72 hrs by immunoblot analysis (reference value: 1); type: cell-based
T1 sequence (whole entry): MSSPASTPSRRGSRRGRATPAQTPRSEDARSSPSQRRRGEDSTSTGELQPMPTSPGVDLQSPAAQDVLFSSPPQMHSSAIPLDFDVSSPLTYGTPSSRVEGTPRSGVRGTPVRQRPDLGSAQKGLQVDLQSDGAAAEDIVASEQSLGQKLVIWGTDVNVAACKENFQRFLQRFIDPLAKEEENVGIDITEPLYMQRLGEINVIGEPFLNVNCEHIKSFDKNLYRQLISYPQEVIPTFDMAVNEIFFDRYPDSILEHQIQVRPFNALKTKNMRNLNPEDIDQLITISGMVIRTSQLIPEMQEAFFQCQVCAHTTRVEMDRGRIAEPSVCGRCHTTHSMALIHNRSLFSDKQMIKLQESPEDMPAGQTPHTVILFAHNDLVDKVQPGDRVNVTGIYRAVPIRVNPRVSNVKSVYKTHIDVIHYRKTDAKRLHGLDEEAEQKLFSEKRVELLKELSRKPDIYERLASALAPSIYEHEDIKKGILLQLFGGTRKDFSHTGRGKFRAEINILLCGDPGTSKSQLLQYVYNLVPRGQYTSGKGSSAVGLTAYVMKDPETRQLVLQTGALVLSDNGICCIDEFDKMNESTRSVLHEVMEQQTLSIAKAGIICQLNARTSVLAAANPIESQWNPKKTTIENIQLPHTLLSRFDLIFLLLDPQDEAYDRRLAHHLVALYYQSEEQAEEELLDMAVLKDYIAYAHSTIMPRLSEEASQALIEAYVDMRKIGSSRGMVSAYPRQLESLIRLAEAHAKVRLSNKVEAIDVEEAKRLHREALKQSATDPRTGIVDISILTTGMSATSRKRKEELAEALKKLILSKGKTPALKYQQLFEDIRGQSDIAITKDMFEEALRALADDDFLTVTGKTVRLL

[2] = target: T2, DNA replication licensing factor MCM5 (Homo sapiens) (UniProt P33992); assay: Induction of ubiquitination of MCM5 in human NCI-H1975 cells incubated for 48 hrs by immunoblot analysis (reference value: 1); type: cell-based
T2 sequence (whole entry): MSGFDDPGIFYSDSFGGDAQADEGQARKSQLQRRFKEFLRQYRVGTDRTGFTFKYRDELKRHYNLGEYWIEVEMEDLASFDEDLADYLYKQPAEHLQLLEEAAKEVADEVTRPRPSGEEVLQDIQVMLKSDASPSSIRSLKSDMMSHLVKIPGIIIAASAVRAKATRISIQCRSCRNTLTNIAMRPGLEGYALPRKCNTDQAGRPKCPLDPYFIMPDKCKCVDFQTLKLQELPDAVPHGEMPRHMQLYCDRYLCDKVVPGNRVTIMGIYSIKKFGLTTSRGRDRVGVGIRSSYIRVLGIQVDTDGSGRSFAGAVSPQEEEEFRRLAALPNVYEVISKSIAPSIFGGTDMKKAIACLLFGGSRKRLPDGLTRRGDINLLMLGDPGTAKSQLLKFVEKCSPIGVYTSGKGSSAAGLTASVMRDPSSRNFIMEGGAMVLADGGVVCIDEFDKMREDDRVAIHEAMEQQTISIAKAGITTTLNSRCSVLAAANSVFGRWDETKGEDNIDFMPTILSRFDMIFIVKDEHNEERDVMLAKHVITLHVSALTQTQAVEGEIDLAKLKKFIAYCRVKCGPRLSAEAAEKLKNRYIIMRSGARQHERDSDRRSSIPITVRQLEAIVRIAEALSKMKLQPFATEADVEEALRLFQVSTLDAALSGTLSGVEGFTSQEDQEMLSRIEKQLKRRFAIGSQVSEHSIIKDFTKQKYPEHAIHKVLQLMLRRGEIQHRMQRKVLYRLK

Activity [1]: 0.7
Activity [2]: 0.6
Structure (SMILES): Cc1oc2c(c1C(=O)NCCCn1ccnc1)C(=O)c1ccccc1C2=O
